Experimental data: ChEMBL document CHEMBL1201862, “PubChem BioAssay data set” (2004)
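Protocol summary: plate cells (96-well), add compound at 5 concentrations, incubate 48 h, interpolate endpoints linearly. GI50 = concentration required for 50% inhibition of growth.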 Activity calls are given as the source filed them. Rule as the data show it: active = GI50 up to about 1.1 µM and inactive = higher.

Columns and labels:
Assay in all cases: inhibition of tumour cell growth, NCI panel, 48 h
DLD-1 = test system: DLD-1
KM-20L2 = test system: KM-20L2
HOP-18 = test system: HOP-18
RXF 631 = test system: RXF 631
M19-MEL = test system: M19-MEL
DMS-273 = test system: DMS-273
SNB-78 = test system: SNB-78
XF498 = test system: XF498
BT-549 = test system: BT-549

Row | SMILES | GI50 (DLD-1) | GI50 (KM-20L2) | GI50 (HOP-18) | GI50 (RXF 631) | GI50 (M19-MEL) | GI50 (DMS-273) | GI50 (SNB-78) | GI50 (XF498) | GI50 (BT-549)
1 | CC(C)(C)C(=O)ON1N=NC2C3CC(OCc4ccccc4)(OCc4ccccc4)C(O3)C21 (stereo unspecified) | 15.6 µM (inactive) | 28.4 µM (inactive) | 24.2 µM (inactive) | 24.7 µM (inactive) | 15.8 µM (inactive) | 22.3 µM (inactive) | 26 µM (inactive) | 18.9 µM (inactive) | 
2 | CN(C)CCNC(=O)c1cccc2nc3c4ccccc4c4ccccc4c3nc12 | 1.56 µM (inactive) | 3.8 µM (inactive) | 8.71 µM (inactive) | 2.33 µM (inactive) | 1.88 µM (inactive) | 2.81 µM (inactive) | 14.8 µM (inactive) | 2.47 µM (inactive) | 2.65 µM (inactive)
3 | O=c1[nH]c(=O)n(C2OC3COC2C3O)cc1F (stereo unspecified) | > 100 µM (inactive) | > 100 µM (inactive) | > 100 µM (inactive) | > 100 µM (inactive) |  | > 100 µM (inactive) | > 100 µM (inactive) | > 100 µM (inactive) | 
4 | O=C(CCCCCCCCCCc1ccccc1)C1=C(O)CC(O)CC1=O (stereo unspecified) | 80.4 µM (inactive) | 55 µM (inactive) | > 100 µM (inactive) | 56.8 µM (inactive) | 53.3 µM (inactive) | 48 µM (inactive) | > 100 µM (inactive) | > 100 µM (inactive) | 
5 | CCOc1cccc2c1N[S@@](=O)S2 | > 100 µM (inactive) | > 100 µM (inactive) |  | > 100 µM (inactive) | > 100 µM (inactive) | > 100 µM (inactive) | > 100 µM (inactive) | 78.7 µM (inactive) | 
6 | CN(C)CCNC(=O)c1cccc2nc3ccc4cccnc4c3nc12 | 0.24 µM (active) |  | 1.78 µM (inactive) | 0.132 µM (active) | 0.43 µM (active) | 0.118 µM (active) | 0.482 µM (active) |  | 
7 | O=C(Nc1c(O)[nH]c(=S)[nH]c1=O)c1ccc2ccccc2n1 | > 100 µM (inactive) | > 100 µM (inactive) | > 100 µM (inactive) | > 100 µM (inactive) | > 100 µM (inactive) |  | > 100 µM (inactive) |  | 
8 | CN[C@@H](C)[C@H](N)c1ccccc1 | > 100 µM (inactive) |  | > 100 µM (inactive) | > 100 µM (inactive) |  | > 100 µM (inactive) | > 100 µM (inactive) |  | 
9 | CC(=O)NC(CCCCN(Cc1ccccc1)C(=O)NCCCl)C(=O)NCc1ccccc1 (stereo unspecified) | > 100 µM (inactive) | > 100 µM (inactive) | 29.1 µM (inactive) | > 100 µM (inactive) |  | > 100 µM (inactive) |  |  | 
